10 molecules from patent US8247377B2, “Non-steroidal glucocorticoid inhibitors and their use in treating inflammation, allergy and auto-immune conditions” (Glaxo Group Limited, priority 2006, dated 2012) can be followed below.

Format in all cases: cell-based
One experiment has as its system MMTV promoter. The experiment in a line: MMTV agonist assay in A549 MMTV cells. The settings on record: Homo sapiens, A549, 6 h, >85% = full agonist, >20% and <85% = partial or efficacy selective agonist, read-out: average maximum asymptote in the MMTV agonist assay. The gist of the method:
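A549 cells stably carrying an MMTV promoter-driven renilla luciferase reporter were exposed to compound for 6 h at 37 °C in DMEM with 10% FCS and 25 mM HEPES. Luminescence read after renilla substrate addition; pEC50 and maximum asymptote estimated from dose-response curves.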

For a further experiment, the target named is T1, progesterone receptor (Homo sapiens, UniProt P06401).
T1 construct: expressed in transfected cells; host or cells: CV-1 cells transduced with PRb-BacMam and MMTV-BacMam
T1 sequence (P06401 1-933): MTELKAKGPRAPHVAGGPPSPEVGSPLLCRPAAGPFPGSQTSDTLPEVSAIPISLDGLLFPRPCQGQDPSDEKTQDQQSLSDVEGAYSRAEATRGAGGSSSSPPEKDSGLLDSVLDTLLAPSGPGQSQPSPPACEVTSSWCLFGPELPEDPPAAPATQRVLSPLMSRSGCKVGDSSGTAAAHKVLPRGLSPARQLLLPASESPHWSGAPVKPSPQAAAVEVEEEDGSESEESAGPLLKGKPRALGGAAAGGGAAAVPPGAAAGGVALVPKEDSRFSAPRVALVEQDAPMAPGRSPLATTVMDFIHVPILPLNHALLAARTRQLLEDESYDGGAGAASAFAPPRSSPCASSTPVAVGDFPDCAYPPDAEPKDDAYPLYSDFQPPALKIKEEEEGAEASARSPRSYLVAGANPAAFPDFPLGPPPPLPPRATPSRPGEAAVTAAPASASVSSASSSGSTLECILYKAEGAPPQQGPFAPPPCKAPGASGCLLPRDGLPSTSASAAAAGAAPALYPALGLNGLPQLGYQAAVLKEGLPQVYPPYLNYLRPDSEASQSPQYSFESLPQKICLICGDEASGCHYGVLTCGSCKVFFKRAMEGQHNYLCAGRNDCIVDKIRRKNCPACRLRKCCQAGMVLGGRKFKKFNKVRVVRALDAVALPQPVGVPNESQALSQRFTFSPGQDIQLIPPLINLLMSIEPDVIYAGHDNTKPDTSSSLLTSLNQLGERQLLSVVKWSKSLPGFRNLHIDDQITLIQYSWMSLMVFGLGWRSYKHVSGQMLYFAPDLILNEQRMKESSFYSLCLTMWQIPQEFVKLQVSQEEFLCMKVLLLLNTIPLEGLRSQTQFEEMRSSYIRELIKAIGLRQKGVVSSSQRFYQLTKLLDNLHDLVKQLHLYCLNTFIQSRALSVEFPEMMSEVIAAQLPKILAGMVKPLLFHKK
The experiment in a line: Assay for progesterone receptor activity (CV-1 cells, PRb-BacMam/MMTV-BacMam). The settings on record: CV-1 cells transduced with PRb-BacMam and MMTV-BacMam; read-out: pEC50 progesterone receptor activity (converted). The gist of the method: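 CV-1 cells co-transduced with PRb-BacMam and MMTV-BacMam (10% each), seeded onto compounds in DMEM with 10% serum. After 24 h, luminescence was read with Steadylite. pEC50 values were estimated from dose-response curves.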

A further experiment deals with NFκB. The experiment in a line: NFκB agonist assay in A549 SPAP cells.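 As to average maximum asymptote in the NFkB assay: maximum inhibition of the TNFα-induced NFκB-driven signal.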 To be noted: Homo sapiens; for Emax: A549, A549 SPAP cells, >85% = full agonist, ≧20% = partial or full agonist, read-out: average maximum asymptote in the NFkB assay; for IC50: A549 SPAP cells, TNFα 3.2 ng/ml, read-out: pIC50 for the NFkB assay (converted). The method in brief:
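A549 cells stably carrying an ELAM/NFκB-driven SPAP reporter were pre-incubated 1 h at 37° C with compound, then stimulated with TNFα (3.2 ng/ml final) for 15 h. SPAP activity read colorimetrically with pNPP at 405 nm after ~1 h; pIC50 estimated from dose-response curves.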

Molecules are shown by their SMILES.

On to `Nc1c(C(=O)NCC(O)(CNC(=O)c2c(Cl)cccc2Cl)C(F)(F)F)cnn1-c1ccc(F)cc1` (single isomer, unassigned) [Example 3 Enantiomer 1, 5-Amino-N-[2-({[(2,6-dichlorophenyl)carbonyl]amino}methyl)-3,3,3-trifluoro-2-hydroxypropyl]-1-(4-fluorophenyl)-1H-pyrazole-4-carboxamide], for which, in the experiment on MMTV promoter, the Emax lay in the range of 20 to 85%. The EC50 on progesterone receptor was above 1000 nM. In the experiment on NFκB, the Emax is at least 20% and the IC50 is below 1000 nM.
Regarding `CCN(CC(O)(CNC(=O)c1cnn(-c2ccc(F)cc2)c1N)C(F)(F)F)C(=O)c1ccccc1S(C)(=O)=O` (single isomer, unassigned) [Example 10 Enantiomer 1, 5-Amino-N-{2-[(ethyl{[2-(methylsulfonyl)phenyl]carbonyl}amino)methyl]-3,3,3-trifluoro-2-hydroxypropyl}-1-(4-fluorophenyl)-1H-pyrazole-4-carboxamide], the Emax in the experiment on MMTV promoter and in the experiment with NFκB was above 85% in each case. For the same molecule, at progesterone receptor, the EC50 is above 1000 nM. The IC50 in the experiment on NFκB is below 1000 nM.
As for `Nc1c(C(=O)NCC(O)(CNC(=O)c2c(Br)cccc2Br)C(F)(F)F)cnn1-c1ccc(F)cc1` (single isomer, unassigned) [Example 11 Enantiomer 1, 5-Amino-N-[2-({[(2,6-dibromophenyl)carbonyl]amino}methyl)-3,3,3-trifluoro-2-hydroxypropyl]-1-(4-fluorophenyl)-1H-pyrazole-4-carboxamide], the Emax in the experiment on MMTV promoter was in the range of 20 to 85%. At progesterone receptor, the EC50 was above 1000 nM. Further, in the experiment with NFκB, the Emax is at least 20% and the IC50 is below 1000 nM.
On the same counts, the results for `Nc1c(C(=O)NCC(O)(CNC(=O)c2c(Cl)cccc2Br)C(F)(F)F)cnn1-c1ccc(F)cc1` (single isomer, unassigned) [Example 12 Enantiomer 1, 5-Amino-N-[2-({[(2-bromo-6-chlorophenyl)carbonyl]amino}methyl)-3,3,3-trifluoro-2-hydroxypropyl]-1-(4-fluorophenyl)-1H-pyrazole-4-carboxamide] are 20 to 85%, above 1000 nM, at least 20% and below 1000 nM.
On the same counts, the results for `Nc1c(C(=O)NCC(O)(CNC(=O)c2c(F)cccc2Br)C(F)(F)F)cnn1-c1ccc(F)cc1` (single isomer, unassigned) [Example 13 Enantiomer 1, 5-Amino-N-[2-({[(2-bromo-6-fluorophenyl)carbonyl]amino}methyl)-3,3,3-trifluoro-2-hydroxypropyl]-1-(4-fluorophenyl)-1H-pyrazole-4-carboxamide] are 20 to 85%, above 1000 nM, at least 20% and below 1000 nM.
As for `Nc1c(C(=O)NCC(O)(CNC(=O)c2c(Cl)cccc2OC(F)F)C(F)(F)F)cnn1-c1ccc(F)cc1` (single isomer, unassigned) [Example 14 Enantiomer 1, 5-Amino-N-(2-{[({2-chloro-6-[(difluoromethyl)oxy]phenyl}carbonyl)amino]methyl}-3,3,3-trifluoro-2-hydroxypropyl)-1-(4-fluorophenyl)-1H-pyrazole-4-carboxamide], the Emax is 20 to 85% with MMTV promoter and at least 20% in the experiment with NFκB. On progesterone receptor, the EC50 is above 1000 nM. Besides, the IC50 with NFκB was below 1000 nM.
On the same counts, the results for `Nc1c(C(=O)NCC(O)(CNC(=O)c2c(C(F)F)cccc2C(F)F)C(F)(F)F)cnn1-c1ccc(F)cc1` (single isomer, unassigned) [Example 43 Enantiomer 1, 5-Amino-N-{2-[({[2,6-bis(difluoromethyl)phenyl]carbonyl}amino)methyl]-3,3,3-trifluoro-2-hydroxypropyl}-1-(4-fluorophenyl)-1H-pyrazole-4-carboxamide] are 20 to 85%, at least 20%, above 1000 nM and below 1000 nM.
On to `Nc1c(C(=O)NCC(O)(CNC(=O)c2c(Cl)cccc2C(F)(F)F)C(F)(F)F)cnn1-c1ccc(F)cc1` (single isomer, unassigned) [Example 44 Enantiomer 1, 5-Amino-N-{2-[({[2-chloro-6-(trifluoromethyl)phenyl]carbonyl}amino)methyl]-3,3,3-trifluoro-2-hydroxypropyl}-1-(4-fluorophenyl)-1H-pyrazole-4-carboxamide], for which, in the experiment with MMTV promoter, the Emax lay within 20 to 85%. Besides, at progesterone receptor, the EC50 was above 1000 nM. Moreover, in the experiment with NFκB, the Emax was at least 20% and the IC50 was below 1000 nM.
The matching figures for `Nc1c(C(=O)NCC(O)(CNC(=O)c2c(Br)cccc2C(F)(F)F)C(F)(F)F)cnn1-c1ccc(F)cc1` (single isomer, unassigned) [Example 45 Enantiomer 1, 5-Amino-N-{2-[({[2-bromo-6-(trifluoromethyl)phenyl]carbonyl}amino)methyl]-3,3,3-trifluoro-2-hydroxypropyl}-1-(4-fluorophenyl)-1H-pyrazole-4-carboxamide]: 20 to 85%, above 1000 nM, at least 20% and below 1000 nM.
On the same counts, the results for `Nc1c(C(=O)NCC(O)(CNC(=O)c2c(F)cccc2OC(F)F)C(F)(F)F)cnn1-c1ccc(F)cc1` (single isomer, unassigned) [Example 48 Enantiomer 1, 5-Amino-N-(2-{[({2-[(difluoromethyl)oxy]-6-fluorophenyl}carbonyl)amino]methyl}-3,3,3-trifluoro-2-hydroxypropyl)-1-(4-fluorophenyl)-1H-pyrazole-4-carboxamide] are 20 to 85%, above 1000 nM, at least 20% and below 1000 nM.
